One assay relates to Spodoptera litura. Briefly: Test Example 1: cabbage leaf immersion test, insecticidal rate on third-instar larvae. The class given is in vivo. To be noted: cabbage leaf immersed 60 seconds, after 4 days, 3 replicates. The method, then:
A suspension concentrate containing 10.0% by weight of etoxazole [product name: Baroque (registered trademark) flowable, manufactured by Kyoyu Agri Co., Ltd.] was diluted with water containing 0.02% by volume of a spreading agent [product name: Sindain (registered trademark), manufactured by Sumitomo Chemical Co., Ltd.] so that the concentration of etoxazole became 25 ppm.
A suspension concentrate containing 11.7% by weight of spinetoram (weight ratio of spinetoram J:spinetoram L=75:25) was diluted with water containing 0.02% by volume of a spreading agent [product name: Sindain (registered trademark), manufactured by Sumitomo Chemical Co., Ltd.] so that the concentration of spinetoram became 7.31 ppm.
(§1) The water dilution of spinetoram was mixed with an equal amount of the water dilution of etoxazole to prepare a test solution.
The water dilution of etoxazole and the water dilution of spinetoram were respectively diluted with an equal amount of water containing 0.02% by volume of the same spreading agent as mentioned above to prepare a 12.5 ppm water dilution of etoxazole and a 3.66 ppm water dilution of spinetoram.
A cabbage was planted in a pot (volume: 860 ml) and grown until the fourth leaf stage. The leaves of the cabbage were cut off one by one. […]
An insect death rate was calculated according to the following equation. […]

The subject of the next assay is Panonychus citri. Description: Test Example 2: Satsuma mandarin orange leaf piece immersion test, insecticidal rate on female imagoes. The class given is in vivo. To be noted: mandarin orange leaf piece immersed 60 seconds, after 6 days, 3 replicates. The method, then:
A suspension concentrate containing 10.0% by weight of etoxazole [product name: Baroque (registered trademark) flowable, manufactured by Kyoyu Agri Co., Ltd.] was diluted with water containing 0.02% by volume of a spreading agent [product name: Sindain (registered trademark), manufactured by Sumitomo Chemical Co., Ltd.] so that the concentration of etoxazole became 1.56 ppm.
A suspension concentrate containing 11.7% by weight of spinetoram (weight ratio of spinetoram J:spinetoram L=75:25) was diluted with water containing 0.02% by volume of a spreading agent [product name: Sindain (registered trademark), manufactured by Sumitomo Chemical Co., Ltd.] so that the concentration of spinetoram became 6.25 ppm.
as §1
The water dilution of etoxazole and the water dilution of spinetoram were respectively diluted with an equal amount of water containing 0.02% by volume of the same spreading agent as mentioned above to prepare a 0.78 ppm water dilution of etoxazole and a 3.13 ppm water dilution of spinetoram.
Leaves were taken from a cultivated Satsuma mandarin orange tree, and cut into 2-cm-square pieces. One of the pieces was immersed in the test solution for 60 seconds. […]
An insecticidal rate was calculated in the same manner as Test Example 1. […]

For spinetoram, the results for the Insecticidal rate in the assay on Spodoptera litura (3.66 ppm active ingredient) and in the assay with Panonychus citri (3.13 ppm active ingredient) were 43.3% and 23.1%, respectively.
Regarding `CCOc1cc(C(C)(C)C)ccc1C1COC(c2c(F)cccc2F)=N1` (stereo not shown) [Etoxazole, 2-(2,6-difluorophenyl)-4-[4-(1,1-dimethylethyl)-2-ethoxyphenyl]-4,5-dihydrooxazole], the Insecticidal rate is 26.7% in the assay with Spodoptera litura (12.5 ppm active ingredient) and 7.7% in the assay on Panonychus citri (0.78 ppm active ingredient).
